25 compounds from ChEMBL document CHEMBL4837229 (Eur J Med Chem, 2021) can be followed below.

One data set has as its target Neuraminidase (Influenza A virus, UniProt B4URF0). Also on record: species or system Influenza A virus (A/Anhui/1/2005(H5N1)).
Data set [1] concerns Influenza A virus. As to the kind of experiment: microbe, parasite or virus in culture. As to conditions: A/California/04/2009(H1N1), MDCK, 48 h.
Data set [2] can be described thus: Stability of the compound in human plasma assessed as parent compound remaining measured immediately. Type of data set: ADME, cell-free. The note with it: read-out: Stabilty.
In the next data set the test system is MDCK. Kind of data set: Cytotoxicity against MDCK cells assessed as reduction in cell viability at 250 uM. In kind it is cell-based, Canis lupus familiaris. The note with it: dog.
A short description of data set [3]: Stability of the compound in human plasma assessed as parent compound remaining measured after 60 mins. Type of data set: ADME, cell-free. As to conditions: read-out: Stabilty.
The subject of data set [4] is Influenza A virus. In kind it is functional, organism-based. As to conditions: A/California/04/2009(H1N1), MDCK, time 46.0 hrs.
Data set [5] is described as follows: in vitro. As to conditions: rat, liver microsomes. A general note: Microsomes from liver hold many membrane-bound enzymes, among them those of drug oxidation.
Data set [6] in a line: in vitro. The note with it: human, liver microsomes.
The nature of data set [7]: Stability of the compound in human plasma assessed as parent compound remaining measured after 120 mins. As to conditions: read-out: Stabilty. Type of data set: ADME, cell-free.
A short description of data set [8]: Inhibition of Influenza A virus (A/California/04/2009(H1N1)) Neuraminidase using MUNANA as substrate preincubated for 5 to 15 mins followed by substrate addition and measured after 30 mins by fluorescence spectrophotometric method.
The nature of data set [9]: Stability of the compound in human plasma assessed as parent compound remaining measured after 30 mins. The note with it: read-out: Stabilty. Type of data set: ADME, cell-free.
The nature of data set [10]: in vitro. The note with it: mouse, liver microsomes.
Data set [11] is described as follows: Stability of the compound in human plasma assessed as parent compound remaining measured after 10 mins. In kind it is ADME, cell-free. The note with it: read-out: Stabilty.

Structures are written as SMILES. The source made the active and inactive calls. The rule behind the calls is not given here.

Sequence of Neuraminidase (B4URF0 whole entry): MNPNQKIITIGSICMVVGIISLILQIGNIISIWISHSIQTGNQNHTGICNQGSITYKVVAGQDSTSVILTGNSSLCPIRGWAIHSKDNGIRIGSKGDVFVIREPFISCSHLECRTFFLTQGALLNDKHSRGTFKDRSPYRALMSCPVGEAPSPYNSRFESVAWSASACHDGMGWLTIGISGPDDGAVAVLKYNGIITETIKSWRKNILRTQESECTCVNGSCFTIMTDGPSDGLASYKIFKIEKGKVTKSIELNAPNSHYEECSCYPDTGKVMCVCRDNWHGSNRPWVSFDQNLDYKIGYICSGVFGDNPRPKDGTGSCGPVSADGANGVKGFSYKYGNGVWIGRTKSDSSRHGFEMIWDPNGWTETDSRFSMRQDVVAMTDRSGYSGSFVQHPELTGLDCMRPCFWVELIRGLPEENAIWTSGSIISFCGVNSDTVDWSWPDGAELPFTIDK

For orientation: IC50 means the concentration at which inhibition is half-maximal. Low readings indicate inhibition by little substance, high ones a need for much substance. As for `CCC(CC)O[C@@H]1C=C(C(=O)O)C[C@H](NC(=O)NNCc2ccccc2OC)[C@H]1NC(C)=O`, on Neuraminidase, half-maximal inhibition (IC50) required 2760 nM. Same read-out and setting: the figure for `CCC(CC)O[C@@H]1C=C(C(=O)O)C[C@H](NC(=O)NNCC2CC2)[C@H]1NC(C)=O` is 4110 nM. A word on the EC50: it is the concentration at which the effect is half-maximal. A low value points to higher potency in that assay. Turning to `CCC(CC)O[C@@H]1C=C(C(=O)O)C[C@H](N)[C@H]1NC(C)=O` [OSELTAMIVIR CARBOXYLATE], it took 1.4 nM to reach a half-maximal effect with Influenza A virus [1] (EC50).

Compound `CCC(CC)O[C@@H]1C=C(C(=O)O)C[C@H](NC(=O)NNCc2ccccc2)[C@H]1NC(C)=O` gave a 50% inhibitory concentration (IC50) at Neuraminidase of 4350 nM. What is called half-life is how long it takes for the measured level to halve. As for `CCC(CC)O[C@@H]1C=C(C(=O)O)C[C@H](NC(=O)NN)[C@H]1NC(C)=O`, in data set [2], the remaining at 0 min came to 100%. Besides, in the data set with MDCK, the Activity entry is “Non-Toxic”. Besides, the remaining at 1 h in data set [3] was 99.5%. For the same compound, the result with Influenza A virus [4] was inactive. Besides, the half-life in the data set “in vitro [5]” was determined as 45.9 min; in the data set “in vitro [6]”, 72.9 min; in the data set “in vitro [10]” it was 49.7 min. Moreover, the IC50 worked out at 26.8 nM on Neuraminidase and 11.9 nM in data set [8]. Also, in data set [7], the remaining at 2 h turned out to be 107%. In addition, the 50% effective concentration (EC50) with Influenza A virus [1] amounted to 7.8 nM. In [9], the remaining at 0.5 h was determined as 98.8%. The remaining at 10 min in [11] worked out at 88.6%. Take `CCC(CC)O[C@@H]1C=C(C(=O)O)C[C@H](NC(=O)NNCc2cccc(Cl)c2)[C@H]1NC(C)=O`: the IC50 at Neuraminidase was found to be 5850 nM. On the same count and under the same terms, then `CCCCCCCNNC(=O)N[C@H]1CC(C(=O)O)=C[C@@H](OC(CC)CC)[C@@H]1NC(C)=O`, with 575 nM; and `CCCNNC(=O)N[C@H]1CC(C(=O)O)=C[C@@H](OC(CC)CC)[C@@H]1NC(C)=O`, with 241 nM. For the compound `CCC(CC)O[C@@H]1C=C(C(=O)O)C[C@H](NC(N)=O)[C@H]1NC(C)=O`, the IC50 is 254 nM on Neuraminidase and 8.7 nM in data set [8]. `CCCCCCCCNNC(=O)N[C@H]1CC(C(=O)O)=C[C@@H](OC(CC)CC)[C@@H]1NC(C)=O` yielded an IC50 on Neuraminidase above 10000 nM.

For `CCC(CC)O[C@@H]1C=C(C(=O)O)C[C@H](NC(=O)NNC)[C@H]1NC(C)=O`, the 50% inhibitory concentration (IC50) in data set [8] is 249 nM. As for `CCC(CC)O[C@@H]1C=C(C(=O)O)C[C@H](NC(=O)NNCc2cccc(OC)c2)[C@H]1NC(C)=O`, half-maximal inhibition at Neuraminidase (IC50) was put at 326 nM. `CCC(CC)O[C@@H]1C=C(C(=O)O)C[C@H](NC(=O)NNCc2ccc(OC)cc2)[C@H]1NC(C)=O` came in with an IC50 against Neuraminidase of 567 nM.

Compound `CCC(CC)O[C@@H]1C=C(C(=O)O)C[C@H](NC(=O)NNCc2ccccc2Cl)[C@H]1NC(C)=O` showed an IC50 at Neuraminidase of 586 nM. Still for that read-out and setting: then `CCC(CC)O[C@@H]1C=C(C(=O)O)C[C@H](NC(=O)NNCCc2ccccc2)[C@H]1NC(C)=O`, with 2460 nM; and `CCCCCNNC(=O)N[C@H]1CC(C(=O)O)=C[C@@H](OC(CC)CC)[C@@H]1NC(C)=O`, with 1100 nM. Still for that read-out and setting: the figure for `CCNNC(=O)N[C@H]1CC(C(=O)O)=C[C@@H](OC(CC)CC)[C@@H]1NC(C)=O` is 576 nM; for `CCC(CC)O[C@@H]1C=C(C(=O)O)C[C@H](NC(=O)NNC/C=C/c2ccccc2)[C@H]1NC(C)=O` it is 7850 nM. On the same count and under the same terms, the figure for `CCC(CC)O[C@@H]1C=C(C(=O)O)C[C@H](NC(=O)NNC2CCOCC2)[C@H]1NC(C)=O` is 1210 nM.

In the case of `CCC(CC)O[C@@H]1C=C(C(=O)O)C[C@H](NC(=O)NNCCC(C)C)[C@H]1NC(C)=O`, on Neuraminidase, the concentration for half-maximal inhibition (IC50) was 1530 nM.

With `CCC(CC)O[C@@H]1C=C(C(=O)O)C[C@H](NC(=O)NNCC(C)C)[C@H]1NC(C)=O`, it took 2320 nM to reach half-maximal inhibition against Neuraminidase (IC50). Regarding `CCCCNNC(=O)N[C@H]1CC(C(=O)O)=C[C@@H](OC(CC)CC)[C@@H]1NC(C)=O`, the values for the half-maximal inhibitory concentration (IC50) (on Neuraminidase; in data set [8]) were 38.3 nM and 332 nM, respectively.

`CCC(CC)O[C@@H]1C=C(C(=O)O)C[C@H](NC(=O)NNCCCc2ccccc2)[C@H]1NC(C)=O` came in with an IC50 against Neuraminidase of 9150 nM. Still for that read-out and setting: the figure for `CCCCCCNNC(=O)N[C@H]1CC(C(=O)O)=C[C@@H](OC(CC)CC)[C@@H]1NC(C)=O` is 4980 nM; for `CCC(CC)O[C@@H]1C=C(C(=O)O)C[C@H](NC(=O)NNCc2ccc(Cl)cc2)[C@H]1NC(C)=O` it is 875 nM.
